Assay results from US20120108538A1, “SULFATED POLYSACCHARIDES HAVING ANTIPLASMODIAL ACTIVITY AND METHODS AND PRODUCTS FOR IDENTIFYING ANTIPLASMODIAL ACTIVITY” (priority 2009, published 2012).
≈ marks a conversion by molar mass, not a printed value. Entries after “also recorded” stand apart in the source; their conditions may differ. Ends that are not written are not given here.

Key:
P. falciparum schizonts = test: Schizont rupture under E64 treatment; format: cell-based, Plasmodium falciparum; settings: 10 uM E64
Description: Parasites were then incubated until most parasites had developed to late-stage pigmented trophozoites and schizonts (typically 40-42 hours). Early to mid schizont stage parasites (40-44 hours post invasion) were separated from uninfected RBC and early-stage infected RBCs (resulting in >95% purity) with a MAC magnet separation column (Macs Miltenyi Biotec). Purified schizonts were then incubated with 10 uM of E64 (Sigma) for 7-8 hours; Applicant typically used approximately 30 ml of culture media for every 100 ml of starting culture (3% hematocrit, 3% parasitemia). After approximately 6 hours of incubation with E64, treated schizonts were pelleted by centrifugation at 1900 g for 5 minutes. Supernatant was removed and schizonts were resuspended in fresh culture media. Resuspended E64 treated parasites were filtered through a 1.2 um Acrodisc 32 mm syringe filter (Pall Corporation). […]
To test the activity of inhibitory compounds on invasion (Supporting Information Table 3), E64 treated schizonts were resuspended and filtered in culture medium without human serum. […] Merozoite:RBCs suspensions containing inhibitors were incubated for one hour and then washed twice with culture medium to remove inhibitors, then resuspended in fresh culture media and incubated and analysed as for standard merozoite invasion assays. […]

[1] = system: purified P. falciparum merozoites invading RBCs; test: Invasion inhibition assay (IIA) using purified merozoites; format: cell-based, Plasmodium falciparum
Description: Purified merozoites were mixed with uninfected RBCs and cultured using standard conditions in 96 well U-bottom plates at a final volume of 50 μl or 100 μl per well. Specific assay conditions were varied for different test conditions, as described in the Results section of the manuscript. Assays were typically performed under static conditions. Some assays were also performed with agitation of merozoite:RBC suspensions.
To test the activity of inhibitory compounds on invasion (Supporting Information Table 3), E64 treated schizonts were resuspended and filtered in culture medium without human serum. A typical merozoite invasion inhibition assay consisted of filtered merozoites (40 ul) added to RBC suspension (5 ul at […]; final concentration 1% hematocrit) and inhibitory compounds (5 ul at 10-times the final concentration required) in 96-well plates. Merozoite:RBCs suspensions containing inhibitors were incubated for one hour and then washed twice with culture medium to remove inhibitors, then resuspended in fresh culture media and incubated and analysed as for standard merozoite invasion assays. A number of compounds were also tested for inhibition of schizont rupture by incubating late stage schizonts (1-2% parasitaemia, 1% haematocrit in 50 ul) with a 1 in 10 dilution of compounds and monitoring the course of schizont rupture at 3 time points over an 8 hour period by flow cytometry.

[2] = system: P. falciparum blood stage growth; test: Growth inhibition assay (GIA), flow cytometry; format: cell-based, Plasmodium falciparum; settings: for inhibitory activity against P. falciparum blood stage growth in GIA (words) / IC50, inhibition of P. falciparum blood stage growth in GIA: 3D7 parasite line; for IC50, inhibition of P. falciparum blood stage growth in GIA: one cycle of parasite growth
Description: P. falciparum was cultured as described. Parasites were maintained in culture media of RPMI-HEPES supplemented with 5% (vol/vol) heat inactivated (56° C. 1 hr) human serum (Australian Red Cross Blood Bank),. […] (Gibco), 10mM L-glutamine (Gibco) and 25 mM […]. Parasites were grown at 37° C., 2% hematocrit, O+ human erythrocytes (Australian Red Cross Blood Bank), 1% O2 4% CO2 95% N2 atmosphere. Sorbitol (Sigma-Aldrich) was used to synchronize cultures. 32. Persson K E, Lee C T, Marsh K, Beeson J G (2006) Development and optimization of high-throughput methods to measure Plasmodium falciparum-specific growth inhibitory antibodies. J Clin Microbiol 44: 1665-1673.33. Lambros C, Vanderberg J P (1979) Synchronization of Plasmodium falciparum erythrocytic stages in culture. J Parasitol 65: 418-420.
Heparin and K5 polysaccharides (Table 1) were tested for inhibitory activity against P. falciparum parasites using high throughput growth inhibitory assays (GlAs). Duplicate 25 μl suspensions of synchronized parasites, 2% parasitemia (32 hr trophozoite), 1% hematocrit with normal or enzymatically treated erythrocyctes, were incubated with inhibitory compounds in 96 well sterile U-bottom plates (Falcon). For humidification, outside wells were filled with sterile human tonicity phosphate-buffered saline (HT-PBS). Plates were incubated as for parasite culture for 44 hrs and analyzed. Parasites were stained with 10 μg/mL ethidium bromide (EtBr) (BioRad), HT-PBS, 1 hr in darkness. Cells were washed and re-suspended in 200 μL HT-PBS. Parasitemia was measured using FACSCalibur flow-cytometry. Data were analyzed using FlowJo (Tree Star), gating on intact erythrocytes and determining parasitemia by EtBr staining. Inhibitory effects of compounds were expressed as percent growth of uninhibited controls (HT-PBS) for each experiment.
Erythrocytes were treated with neuraminidase, chymotrypsin and trypsin as described previously. Erythrocytes were washed with RPMI-HEPES and incubated with neuraminidase ([…], 15 minutes), chymotrypsin (1 mg/mL, 45 minutes) or trypsin (100 μg/mL, […]) at 37° C. Neuraminidase treated bells were washed three times with RPMI-HEPES and chymotrypsin and trypsin treated cells were washed once with culture media and twice with RPMI-HEPES and then used in GIAs. 34. Persson K E, McCallum F J, Reiling L, Lister N A, Stubbs J, et al. (2008) Variation in use of erythrocyte invasion pathways by Plasmodium falciparum mediates evasion of human inhibitory antibodies. J Clin Invest 118: 342-351.

MSP1-42 [3] = biological target: T1, MSP1-42 (Plasmodium falciparum, UniProt Q8I0U8); test: Binding of native merozoite proteins to heparin-agarose beads with soluble inhibitors; design: proteolytically processed into 83 kDa, 30 kDa, 38 kDa and a C-terminal 42kDa (MSP1-42) fragment; endogenous in cells; host or cells: P. falciparum schizont-stage cultures, Triton X-100 extract; species or system P. falciparum; settings: soluble inhibitor 200 μg/mL
Excerpt: Synchronized schizont stage (40-48 hr, 5-8% parasitemia) cultures were used for protein extraction. Uninfected erythrocytes were lysed with 0.15% saponin (Kodak) on ice for ten minutes. Remaining pellets were washed three times with cold HT-PBS. Protein from schizonts was extracted with 5 times volume of 1% TritonX100 (TX100) (Sigma-Aldrich, Australia), HT-PBS with protease inhibitors (Roche). Insoluble components were pelleted by centrifugation and supernatants collected. Schizont TX100 extracted proteins were bound to heparin-agarose beads (Sigma-Aldrich, Australia) as previously described. Heparin-agarose beads were washed once with 1% casein in PBS, once in PBS, and then blocked with 1% casein in PBS overnight at 4° C. TX100 merozoite protein extracts where incubated with beads containing 0.1% casein and 200 μg/mL of test inhibitor, or PBS as control, overnight at 4° C.; 50 μL of packed beads and 100 μL protein and inhibitor were used or each test sample. Inhibitors used were heparin and CSC. Unbound proteins in the supernatant were collected through Micro Bio-Spin Chromatography Columns (Bio-Rad). After incubation, beads were washed five times with PBS containing 0.1% casein and 1% Triton X-100. Bound proteins were eluted from beads with 50 μL of warmed reducing sample buffer. Bound and unbound proteins were separated by SDS-PAGE under reducing conditions and blotted onto membranes for probing with antibody detection with anti-MSP1 or anti-EBA175. 36. Baum J, Chen L, Healer J, Lopaticki S, Boyle M, et al. (2009) Reticulocyte-binding protein homologue 5—an essential adhesin involved in invasion of human erythrocytes by Plasmodium falciparum: Int J Parasitol 39: 371-380.

lactoferrin = biological target: T2, lactoferrin (Homo sapiens, UniProt P02788); test: Heparin-BSA binding assay (positive control protein); settings: data not shown
T2 construct: purchased
Description: (§1) Recombinant merozoite antigens were coated (1 μg/mL) onto 96 well plates (Nunc Maxisorb) in HT-PBS overnight at 4° C. Plates were washed and blocked with 1% casein, 1 hr, room temperature. Plates were incubated with heparin-BSA conjugate with soluble inhibitors and detected with anti-BSA (rabbit) (Sigma-Aldrich) antibodies and anti-rabbit -HRP. Detection was performed with 2,2′-azino-bis(3-ethylbenzthiazoline-6-sulphonic acid) (Sigma-Aldrich) monitored for colour change and measured for absorbance at 405 nm. All incubations were performed in HT-PBS 0.1% casein 0:05% Tween20, 1 hr at room temperature. Plates were washed 3 times HT-PBS 0.05% Tween20 between incubations.

MSP1-42 [4] = biological target: T1, MSP1-42; test: Heparin-BSA binding assay; design: a C-terminal 42kDa (MSP1-42) fragment; made in house; host or cells: E. coli; species or system P. falciparum; settings: soluble inhibitor
Description: as §1

T1 sequence (Q8I0U8 1327-1699): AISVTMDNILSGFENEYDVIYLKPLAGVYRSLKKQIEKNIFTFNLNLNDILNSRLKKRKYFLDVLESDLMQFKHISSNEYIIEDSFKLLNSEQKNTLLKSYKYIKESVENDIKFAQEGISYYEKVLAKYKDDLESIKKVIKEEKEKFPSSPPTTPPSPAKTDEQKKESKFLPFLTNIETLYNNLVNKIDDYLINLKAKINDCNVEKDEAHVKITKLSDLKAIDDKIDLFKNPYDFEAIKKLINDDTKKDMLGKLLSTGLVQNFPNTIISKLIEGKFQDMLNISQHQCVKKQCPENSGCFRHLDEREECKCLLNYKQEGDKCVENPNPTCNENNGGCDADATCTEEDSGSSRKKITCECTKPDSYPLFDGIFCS
T2 sequence (P02788 20-710, species assumed): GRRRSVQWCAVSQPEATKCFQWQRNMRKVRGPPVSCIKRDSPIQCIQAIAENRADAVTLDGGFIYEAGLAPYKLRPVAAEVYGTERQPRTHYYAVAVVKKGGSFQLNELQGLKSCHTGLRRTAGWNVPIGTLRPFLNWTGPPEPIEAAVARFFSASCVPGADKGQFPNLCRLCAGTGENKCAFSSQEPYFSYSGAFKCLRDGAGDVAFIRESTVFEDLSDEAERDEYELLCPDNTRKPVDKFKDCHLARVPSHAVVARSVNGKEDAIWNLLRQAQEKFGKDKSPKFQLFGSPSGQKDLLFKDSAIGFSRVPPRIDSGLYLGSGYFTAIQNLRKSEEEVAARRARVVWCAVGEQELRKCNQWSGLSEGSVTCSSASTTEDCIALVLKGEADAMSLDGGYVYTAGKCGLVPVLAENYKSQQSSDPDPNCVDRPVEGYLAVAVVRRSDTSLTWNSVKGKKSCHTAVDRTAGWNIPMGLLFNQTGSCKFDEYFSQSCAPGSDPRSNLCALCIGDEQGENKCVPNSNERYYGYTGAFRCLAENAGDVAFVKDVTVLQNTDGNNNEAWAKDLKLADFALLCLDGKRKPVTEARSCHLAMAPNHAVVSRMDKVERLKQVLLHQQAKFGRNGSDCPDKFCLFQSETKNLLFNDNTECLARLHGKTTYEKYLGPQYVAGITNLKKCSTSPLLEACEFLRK

In the case of `CC(C)C[C@H](NC(=O)[C@H]1O[C@@H]1C(=O)O)C(=O)NCCCCN=C(N)N` (relative stereo) [E64, trans-Epoxysuccinyl-L-leucylamido(4-guanidino)butane], the “effect on schizont rupture / merozoite release” value (P. falciparum schizonts) is reported as “inhibiting rupture” and the “effect on invasive capacity of merozoites” value ([1]; merozoites incubated with E64) is reported as “did not affect”.

For `O=C(O)CN(CCN(CC(=O)O)CC(=O)O)CC(=O)O` [EDTA], the “inhibition of merozoite invasion in IIA” value [1] was “inhibited invasion”.

In the case of `CO[C@H]1O[C@H](COS(=O)(=O)O)[C@@H](O[C@@H]2O[C@@H](C(=O)O)[C@@H](O[C@H]3O[C@H](COS(=O)(=O)O)[C@@H](O[C@@H]4O[C@H](C(=O)O)[C@@H](O[C@H]5O[C@H](COS(=O)(=O)O)[C@@H](O)[C@H](O)[C@H]5NS(=O)(=O)O)[C@H](O)[C@H]4O)[C@H](OS(=O)(=O)O)[C@H]3NS(=O)(=O)O)[C@H](O)[C@H]2OS(=O)(=O)O)[C@H](O)[C@H]1NS(=O)(=O)O` [Fondaparinux], the IC50 ([2]; Plasmodium falciparum, read-out: IC50 against Plasmodium falciparum invasion) is reported as roughly 100 µg/mL (≈ 66.3 µM).

In the case of `C=C1[C@@H](C)[C@H]2[C@H](Cc3ccccc3)NC(=O)[C@]23[C@H](OC(C)=O)/C=C/[C@@](C)(O)C(=O)[C@@H](C)C/C=C/[C@H]3[C@@H]1O` [cytochalasin D], the “inhibition of merozoite invasion in IIA” value [1] is reported as “effectively inhibited merozoite invasion”.

“VFAEFLPLFSKFGSRMHILK [AMA1-binding peptide]” was tested, and the “inhibition of merozoite invasion in IIA” value [1] was “effectively inhibited merozoite invasion”.

With “chondroitin sulfate B-2,4-di-sulfated [CSB-2,4-OS]” the “inhibitory activity against P. falciparum blood stage growth in GIA (words)” value [2] was “not inhibitory”.

“chondroitin sulfate B-2-6-di-sulfated [CSB-2,6-OS]” was tested, and the “inhibitory activity against P. falciparum blood stage growth in GIA (words)” value [2] was “some inhibitory activity”.

chondroitin sulfate C [CSC] was tested, and the “inhibitory activity against P. falciparum blood stage growth in GIA (words)” value [2] was “non-inhibitory; also recorded: not inhibitory”, the “inhibition of native MSP1-42 binding to heparin-agarose beads” value (from here on “inhibition of native MSP1-42 binding”) (MSP1-42 [3]) was “not” and the “inhibition of lactoferrin binding to heparin-BSA” value (lactoferrin) was “not”.

In the case of chondroitin sulfate D [CSD], the “inhibitory activity against P. falciparum blood stage growth in GIA (words)” value [2] is reported as “not inhibitory”.

With chondroitin sulfate E [CSE] the “inhibition of different P. falciparum lines” value ([2]; 3D7, W2mef, D10, E8B, XIE, HCS3, SA-dependent and SA-independent invasion) was “inhibited to similar levels” and the “IC50, inhibition of P. falciparum blood stage growth in GIA” value [2] was 26.7 µg/mL.

In the case of de-2-O-sulfated heparin, the “inhibitory activity against P. falciparum blood stage growth in GIA (words)” value [2] is reported as “reduced activity” and the “IC50, inhibition of P. falciparum blood stage growth in GIA” value [2] is reported as 123 µg/mL.

For de-6-O-sulfated heparin, the “inhibition of heparin-BSA binding to recombinant MSP1-42” value (MSP1-42 [4]) was “inhibition”, the “inhibitory activity against P. falciparum blood stage growth in GIA (words)” value [2] was “reduced activity” and the “IC50, inhibition of P. falciparum blood stage growth in GIA” value [2] was 373 µg/mL. The “inhibition of native MSP1-42 binding” value (MSP1-42 [3]) was “not” and the “inhibition of native MSP1-42 binding” value (MSP1-42 [3]; listed as de-60-sulfated) was “unable to inhibit binding”.

“de-N de-O-sulfated heparin [de-N/O-sulfated heparin]” was tested, and the “inhibition of heparin-BSA binding to recombinant MSP1-42” value (MSP1-42 [4]) was “inhibition”, the “inhibitory activity against P. falciparum blood stage growth in GIA (words)” value [2] was “loss of inhibitory activity” and the “inhibitory activity against P. falciparum blood stage growth in GIA (words)” value ([2]; listed as Completely desulfated heparin) was “no activity”.

For de-N-sulfated heparin, the “inhibitory activity against P. falciparum blood stage growth in GIA (words)” value [2] was “no activity”, the “inhibitory activity against P. falciparum blood stage growth in GIA (words)” value ([2]; listed as de-N-sulfated) was “loss of inhibitory activity” and the “inhibition of native MSP1-42 binding” value (MSP1-42 [3]) was “not”. For the same compound, the “inhibition of native MSP1-42 binding” value (MSP1-42 [3]; listed as de-N-sulfated) was “unable to inhibit binding”.

For dextran sulfate, the “IC50, inhibition of P. falciparum blood stage growth in GIA” value [2] was 37 µg/mL.

In the case of fucoidan, the “IC50, inhibition of P. falciparum blood stage growth in GIA” value [2] is reported as 38 µg/mL.
